Publication PMC8778818, “Synthesis, Structural Characterization and Anticancer Activity of New 5-Trifluoromethyl-2-thioxo-thiazolo[4,5-d]pyrimidine Derivatives” (Pharmaceuticals, 2022)

What was measured:
[1] = tested on: A375, C32, DU145, MCF-7/WT, CHO-K1 and HaCaT cell lines; assay: MTT cell viability assay, all six cell lines; format: cell-based; conditions: mean over the six cell lines; read-out: Mean A: the mean IC50 for the given compound
Protocol: Twelve compounds (2a-e, 3a-d and 4a-c) at a concentration range of 50–5000 μM were tested for their antiproliferative potential against four human cancer cell lines (A375—melanotic melanoma, C32—amelanotic melanoma, DU145—prostate cancer androgen-independent, MCF-7/WT—breast adenocarcinoma) and two normal cell lines: Chinese Hamster Ovary (CHO-K1) and immortalized human keratinocytes from histologically normal skin (HaCaT).
To determine the antiproliferative activity of newly synthesized compounds, the following cell lines were used: human melanotic melanoma cell line (A375), human amelanotic melanoma cell line (C32), human breast adenocarcinoma cell line (MCF-7/WT), human prostate cancer androgen-independent (DU145) and two normal cell lines: hamster ovarian (CHO-K1) and immortalized human keratinocytes from histologically normal skin (HaCaT). The cells were obtained from the cell line bank of the Department of Molecular and Cellular Biology, Wroclaw Medical University. A375, C32, MCF-7/WT, DU145 and HaCaT cells were grown in a monolayer cultured in Dulbecco’s Modified Eagle’s Medium (DMEM, Sigma-Aldrich, Poznań, Poland), supplemented with 10% of fetal bovine serum (FBS, Gibco, Paisley, UK) and 1% of antibiotics (penicillin/streptomycin, Sigma-Aldrich) and CHO-K1 were grown in HAM’s F-12 medium (Sigma-Aldrich), supplemented with 10% fetal bovine serum (FBS, Gibco) and 1% of antibiotics (penicillin/streptomycin, Sigma-Aldrich). Cell lines were cultured in the polystyrene flasks 25 or 75 cm^2 (Thermo Fisher Scientific, Waltham, MA, USA), which were stored in 37 °C and 5% CO2 in a humidified 95% atmosphere (SteriCult, Thermo Scientific, Alab). The cell medium was exchanged twice a week. The exponentially growing cells were used throughout the experiments. The cells were rinsed with phosphate-buffered saline (PBS, Sigma-Aldrich) and trypsinized by Trypsin-EDTA 0.25% solution (Sigma-Aldrich).
The influence of the compounds was performed in a monolayer culture on cancer and normal cells. Compounds were initially dissolved in DMSO; further dilutions of the compound were performed in Dulbecco’s Modified Eagle’s Medium supplemented with 10% FBS. Compounds were tested in a 50–5000 µM concentration range. In the in vitro experiments, the concentrations of DMSO in the final solution of the compounds were used 0.05%; 0.1%; 0.5%; 1%, respectively.
Cell viability was determined using the MTT colorimetric assay. All cell lines were seeded into 96-well plates to a density of 3 × 10^4 cells/well. After 24 h, the culture supernatants were removed and appropriate dilutions of compounds in the culture medium (200 µL/well) were added to the cells’ monolayer cultures and incubated for an additional 72 h. After 72 h of exposition to the compounds and the removal of the culture medium, cell viability was determined by reducing the yellow dye 3-(4,5-dimethyl-2-thiazol)-2,5-diphenyl-2H-tetrazolium bromide (MTT assay, Sigma Saint Louis, MO, USA; In Vitro Toxicology Assay) to a blue formazan product. The absorbance of the resulting solutions in three duplicate experiments was measured at the wavelength of 560 nm in a microplate reader (EnSpire, Perkin Elmer, Kraków, Poland). MTT assay is a colorimetric method that estimates the rate of metabolism in viable cells. Absorbance is directly proportional to the number of viable cells. All the experiments were performed three times and the mean absorbance values were calculated. The methodology for the evaluation of the growth of human cancer and normal cells was described previously. The cell viability in each group was expressed as a percentage of control (untreated) cells.

[2] = tested on: CCRF-CEM; assay: NCI-60 screen, Leukemia CCRF-CEM; format: cell-based, human; conditions: for Growth of Cells (%): 10^−5 M one dose
[3] = tested on: HOP-92; assay: NCI-60 screen, Non-Small Cell Lung Cancer HOP-92; format: cell-based, human; conditions: for Growth of Cells (%): HOP-92, 10^−5 M one dose
[4] = tested on: COLO-205; assay: NCI-60 screen, Colon Cancer COLO-205; format: cell-based, human; conditions: for Growth of Cells (%): COLO-205, 10^−5 M one dose
[5] = tested on: HCT-15; assay: NCI-60 screen, Colon Cancer HCT-15; format: cell-based; conditions: for Growth of Cells (%): HCT-15, 10^−5 M one dose
[6] = tested on: SW620; assay: NCI-60 screen, Colon Cancer SW620; format: cell-based, human; conditions: for Growth of Cells (%): SW620, 10^−5 M one dose
[7] = tested on: LOX IMVI; assay: NCI-60 screen, Melanoma LOX IMVI; format: cell-based, human; conditions: for Growth of Cells (%): 10^−5 M one dose
[8] = tested on: UACC-257; assay: NCI-60 screen, Melanoma UACC-257; format: cell-based; conditions: for Growth of Cells (%): UACC-257, 10^−5 M one dose
[9] = tested on: OVCAR-3; assay: NCI-60 screen, Ovarian Cancer OVCAR-3; format: cell-based, human; conditions: for Growth of Cells (%): OVCAR-3, 10^−5 M one dose
[10] = tested on: OVCAR-4; assay: NCI-60 screen, Ovarian Cancer OVCAR-4; format: cell-based, human; conditions: for Growth of Cells (%): OVCAR-4, 10^−5 M one dose
[11] = tested on: OVCAR-5; assay: NCI-60 screen, Ovarian Cancer OVCAR-5; format: cell-based, human; conditions: for Growth of Cells (%): OVCAR-5, 10^−5 M one dose
[12] = tested on: NCI/ADR-RES; assay: NCI-60 screen, Ovarian Cancer NCI/ADR-RES; format: cell-based, human; conditions: for Growth of Cells (%): 10^−5 M one dose
[13] = tested on: DU-145; assay: NCI-60 screen, Prostate C. DU-145; format: cell-based; conditions: for Growth of Cells (%): DU-145, 10^−5 M one dose
[14] = tested on: M14; conditions: for Growth of Cells (%): M14, 10^−5 M one dose
[15] = Homo sapiens, five doses 10^−4–10^−8 M
[16] = Homo sapiens, five doses 10^−4–10^−8 M, read-out: log LC50 (the source's name) (converted)
[17] = Homo sapiens, HOP-92, five doses 10^−4–10^−8 M
[18] = Homo sapiens, COLO-205, five doses 10^−4–10^−8 M
[19] = Homo sapiens, SW-620, SW620, five doses 10^−4–10^−8 M

## O=c1[nH]c(C(F)(F)F)nc2c1sc(=S)n2-c1ccccc1 [Compound 2b, 3-phenyl-2-thioxo-5-(trifluoromethyl)-2,3-dihydro[1, 3]thiazolo[4,5-d]pyrimidin-7(6H)-one]
[1]
  IC50: 468 µM
[2]
  Growth of Cells (%): 96.48%
[3]
  Growth of Cells (%): 97.54%
[4]
  Growth of Cells (%): 114.26%
[5]
  Growth of Cells (%): 106.95%
[6]
  Growth of Cells (%): 95.09%
[7]
  Growth of Cells (%): 84.58%
[8]
  Growth of Cells (%): 107.08%
[9]
  Growth of Cells (%): 110.35%
[10]
  Growth of Cells (%): 117.19%
[11]
  Growth of Cells (%): 101.99%
[12]
  Growth of Cells (%): 25.77%
[13]
  Growth of Cells (%): 109.40%
[14]
  Growth of Cells (%): 112.91%

## FC(F)(F)c1nc(Cl)c2sc(=S)n(-c3ccccc3)c2n1 [Compound 3b, 7-chloro-3-phenyl-5-(trifluoromethyl)[1, 3]thiazolo[4,5-d]pyrimidine-2(3H)-thione]
[1]
  IC50: 43.8 µM
[2]
  Growth of Cells (%): −51.41%
[2]; [15]
  GI50: 0.933 µM
[2]; [16]
  CC50: > 100 µM
[2]; five doses 10^−4–10^−8 M
  log TGI: −5.50 log M
[3]
  Growth of Cells (%): −21.23%
[3]; HOP-92, five doses 10^−4–10^−8 M
  log TGI: −5.56 log M
[3]; [17]
  GI50: 1.26 µM
  LC50: 5.89 µM
[4]
  Growth of Cells (%): 30.63%
[4]; COLO-205, five doses 10^−4–10^−8 M
  log TGI: −5.44 log M
[4]; [18]
  GI50: 1.95 µM
  LC50: 6.61 µM
[5]
  Growth of Cells (%): 2.98%
[5]; HCT-15, five doses 10^−4–10^−8 M
  log TGI: −5.26 log M
[5]; Homo sapiens, HCT-15, read-out: log GI50 (converted)
  GI50: 1.86 µM
[5]; Homo sapiens, HCT-15, five doses 10^−4–10^−8 M, read-out: log LC50 (the source's name) (converted)
  CC50: > 100 µM
[6]; [19]
  GI50: 2.14 µM
  LC50 (50% lethal concentration): 21.4 µM
[6]
  Growth of Cells (%): −63.05%
[6]; SW620, five doses 10^−4–10^−8 M
  log TGI: −5.32 log M
[7]
  Growth of Cells (%): 3.11%
[7]; [15]
  GI50: 1.78 µM
  LC50: 6.17 µM
[7]; five doses 10^−4–10^−8 M
  log TGI: −5.48 log M
[8]; Homo sapiens, UACC-257, five doses 10^−4–10^−8 M
  GI50: 1.74 µM
[8]; Homo sapiens, UACC-257, five doses 10^−4–10^−8 M, read-out: log LC50 (the source's name) (converted)
  CC50: 7.94 µM
[8]
  Growth of Cells (%): 19.38%
[8]; UACC-257, five doses 10^−4–10^−8 M
  log TGI: −5.43 log M
[9]; Homo sapiens, OVCAR-3, five doses 10^−4–10^−8 M
  GI50: 1.91 µM
[9]; Homo sapiens, OVCAR-3, five doses 10^−4–10^−8 M, read-out: log LC50 (the source's name) (converted)
  CC50: 6.03 µM
[9]
  Growth of Cells (%): −41.27%
[9]; OVCAR-3, five doses 10^−4–10^−8 M
  log TGI: −5.47 log M
[10]; Homo sapiens, OVCAR-4, five doses 10^−4–10^−8 M
  GI50: 1.78 µM
[10]; Homo sapiens, OVCAR-4, five doses 10^−4–10^−8 M, read-out: log LC50 (the source's name) (converted)
  CC50: 7.24 µM
[10]
  Growth of Cells (%): 23.73%
[10]; OVCAR-4, five doses 10^−4–10^−8 M
  log TGI: −5.44 log M
[11]; Homo sapiens, OVCAR-5, five doses 10^−4–10^−8 M
  GI50: 8.71 µM
[11]; Homo sapiens, OVCAR-5, five doses 10^−4–10^−8 M, read-out: log LC50 (the source's name) (converted)
  CC50: 64.6 µM
[11]
  Growth of Cells (%): 86.56%
[11]; OVCAR-5, five doses 10^−4–10^−8 M
  log TGI: −4.60 log M
[12]
  Growth of Cells (%): 109.92%
[12]; [15]
  GI50: 3.31 µM
[12]; [16]
  CC50: > 100 µM
[12]; five doses 10^−4–10^−8 M
  log TGI: −4.96 log M
[13]
  Growth of Cells (%): 9.04%
[13]; DU-145, five doses 10^−4–10^−8 M
  log TGI: −5.46 log M
[13]; Homo sapiens, DU-145, read-out: log GI50 (converted)
  GI50: 1.86 µM
[13]; Homo sapiens, DU-145, five doses 10^−4–10^−8 M, read-out: log LC50 (the source's name) (converted)
  CC50: 6.46 µM
[14]
  Growth of Cells (%): 26.96%
[14]; M14, five doses 10^−4–10^−8 M
  log TGI: −5.39 log M

## CCNc1nc(C(F)(F)F)nc2c1sc(=S)n2-c1ccccc1 [Compound 4b, 7-(ethylamino)-3-phenyl-5-(trifluoromethyl)[1, 3]thiazolo[4,5-d]pyrimidine-2(3H)-thione]
[1]
  IC50: 476 µM
[4]
  Growth of Cells (%): 105.73%
[5]
  Growth of Cells (%): 94.67%
[6]
  Growth of Cells (%): 106.24%
[7]
  Growth of Cells (%): 88.57%
[8]
  Growth of Cells (%): 98.66%
[9]
  Growth of Cells (%): 106.99%
[10]
  Growth of Cells (%): 98.24%
[11]
  Growth of Cells (%): 112.27%
[12]
  Growth of Cells (%): 92.88%
[13]
  Growth of Cells (%): 101.28%
[14]
  Growth of Cells (%): 107.61%

## Fc1ccc(CNc2nc(C(F)(F)F)nc3c2sc(=S)n3-c2ccccc2)cc1 [Compound 4c]
[1]
  IC50: 485 µM
[2]
  Growth of Cells (%): 102.97%
[3]
  Growth of Cells (%): 106.96%
[4]
  Growth of Cells (%): 112.07%
[5]
  Growth of Cells (%): 103.39%
[6]
  Growth of Cells (%): 114.74%
[7]
  Growth of Cells (%): 109.59%
[8]
  Growth of Cells (%): 96.72%
[9]
  Growth of Cells (%): 111.62%
[10]
  Growth of Cells (%): 125.04%
[11]
  Growth of Cells (%): 102.72%
[12]
  Growth of Cells (%): 114.00%
[13]
  Growth of Cells (%): 122.63%
[14]
  Growth of Cells (%): 112.06%
